Results on nine compounds are retold here after patent EP0163537A1, “1-Propanone derivatives and pharmaceutical compositions containing same” (priority 1984, dated 1985).

Holding throughout (format): in vivo
The subject of data set [1] is Male mice of ddY strain. The data set is described as follows: Test 3 Muscle relaxant activity (traction test, method of Courvoisier et al.). Conditions: 15 minutes after administration, groups of ten.
Method: Male mice of ddY strain, weighing 30 to 37 g, were used in groups of ten. The test compounds were dissolved in physiological saline and administered intraperitoneally in a dose of 50 or 75 mg/kg. […] This method involves a traction test in which the animal is hung by its forelimbs on a horizontal metal rod (2 mm in diameter) placed 20 cm above the floor and examined as to whether it can put its hindlimb on the rod or not.
Specifically, 15 minutes after administration of a test compound, the mouse was hung on the rod by its forelimbs. […] It had been confirmed in preliminary tests that, under normal conditions, all the mice could put their hindlimb on the rod within 5 seconds.
In data set [2] the test system is Male rats of Wistar strain. Put plainly: Test 4 Effect on decerebrate rigidity induced by transection between superior and inferior colliculi. The procedure:
Male rats of Wistar strain, weighing 300 to 400 g, were used. The test compounds were dissolved in physiological saline and administered intravenously in doses of 10 mg/kg and 20 mg/kg.
Rigidity preparations were made according to the method of Fukuda et al. [The Japanese Journal of Pharmacology, 22, 457 (1972)]. Specifically, after a rat was fixed in a prone position under ether anesthesia, an incision was made in the head. The skull was removed around the occipital region to expose the brain. […] More than 2 hours after operation, the rat was mounted in a supine position on a fixing stand. Thus, the effect of the test compounds was evaluated by using the occurrence of rigidity in the antigravity muscles of the limbs as an index.

Data set [3] in a line: Test 5 Acute toxicity (LD50, method of Behrens and Kärbar). The following applies: mouse, in vivo, mice, observed for 7 days. The procedure: (§1) Male mice of ddY strain, weighing 25 to 30 g, were used in groups of five. The test compounds were dissolved in distilled water and administered orally in various doses. […] Then, the LDso was calculated according to the method of Behrens and Kärbar.

The subject of data set [4] is Male mice of ddY strain. The data set is described as follows: Test 1 Anti-nicotine activity (inhibition of nicotine-induced convulsive death). Conditions: 200 mg/kg po, nicotine 2 mg/kg iv after 1 h, observed 1 h; for responders at 200 mg/kg: Mus musculus. As for the experimental part:
Male mice of ddY strain, weighing 28 to 33 g, were used in groups of eight or twelve. The test compounds were dissolved in distilled water and administered orally in a dose of 200 mg/kg. After an hour, nicotine was intravenously administered in a dose of 2 mg/kg.

In data set [5] the test system is Male mice of ddY strain. The data set is described as follows: Test 2 Anti-tremorine activity (inhibition of tremorine-induced tremor). The following applies: for responders at 50 mg/kg: Mus musculus, po, read-out: Inhibition of tremor (%).
Method: Male mice of ddY strain, weighing 28 to 32 g, were used in groups of eight or ten. The test compounds were dissolved in distilled water and administered orally in a dose of 50 mg/kg. After 30 minutes, tremorine dihydrochloride was subcutaneously administered in a dose of 20 mg/kg. Then, the occurrence of tremor was observed after the lapse of 30 and 60 minutes.
The test system of data set [6] is Male mice of ddY strain. The data set is described as follows: Test 5 Acute toxicity (LD50, method of Behrens and Kärbar). The following applies: Table-5a, observed for 7 days. As for the experimental part: as §1
The mark [7] stands for this setting: po, 1 h, Table-2c, 12 animals used.
Where [8] appears, read: 0.5 h, Table-3d, 50 mg/kg po, After 30 min., 10 animals used.
The mark [9] stands for this setting: 1 h, Table-3d, 50 mg/kg po, After 60 min., 10 animals used.
Setting [10] is: Table-3d, 50 mg/kg po, After 30 min., 10 animals used.
The mark [11] stands for this setting: Table-3d, 50 mg/kg po, After 60 min., 10 animals used.
The mark [12] stands for this setting: po, 1 h, Table-2a, 8 animals used.
Where [13] appears, read: po, 1 h, Table-2b, 12 animals used.
The mark [14] stands for this setting: 0.5 h, Table-3a, 50 mg/kg po, After 30 min. from tremorine 20 mg/kg sc, 8 animals used.
[15] abbreviates: 0.5 h, Table-3b, 50 mg/kg po, After 30 min., 10 animals used.
[16] abbreviates: 1 h, Table-3a, 50 mg/kg po, After 60 min. from tremorine 20 mg/kg sc, 8 animals used.
Where [17] appears, read: 1 h, Table-3b, 50 mg/kg po, After 60 min., 10 animals used.
Where [18] appears, read: Table-3a, 50 mg/kg po, After 30 min. from tremorine 20 mg/kg sc, 8 animals used.
[19] abbreviates: Table-3a, 50 mg/kg po, After 60 min. from tremorine 20 mg/kg sc, 8 animals used.

Where a name gives a salt, the structure may show the parent alone. Read-outs that look alike come from different tables or passages of the source.

Regarding `CC(CN1CCCCC1)C(=O)c1ccc2c(c1)CCO2.Cl` (centres unmarked) [Example 85, 1-(2,3-Dihydro-5-benzofuranyl)-2-methyl-3-piperidino-1-propanone hydrochloride], the “Number of animals exhibiting muscle relaxation” value with Male mice of ddY strain [1] (Table-4d, 75 mg/kg ip) was 8. Also, in data set [2] (20 mg/kg intravenously), the “rigidity of the forelimbs and hindlimbs” value was “relaxed the rigidity similarly”. The LD50 at 168 h in data set [3] (po, Table-5c) was 625 mg/kg. In the data set on Male mice of ddY strain [4] (setting [7]), the responders at 200 mg/kg worked out at 66.7%. Moreover, the “Number of surviving animals” value in the data set with Male mice of ddY strain [4] (Table-2c, 12 animals used) is given as 8. For the same compound, the responders at 50 mg/kg in the data set on Male mice of ddY strain [5] (setting [8]) and with Male mice of ddY strain [5] (setting [9]) was 100% in each case. Moreover, the “Number of animals exhibiting no tremor” value in the data set with Male mice of ddY strain [5] (setting [10]) and in the data set with Male mice of ddY strain [5] (setting [11]) was 10 in each case.
`Cc1ccc(C(=O)C(C)CN2CCCCC2)cc1` (centres unmarked) [Tolperisone HCl, 2-methyl-1-(4-methylphenyl)-3-(1-piperidinyl)-1-propanone, reference compound]: the “Number of animals exhibiting muscle relaxation” value in the data set on Male mice of ddY strain [1] (Table-4a, 50 mg/kg ip) is reported as 1; in the data set with Male mice of ddY strain [1] (Table-4d, 75 mg/kg ip), 1. The LD50 at 168 h came out at 625 mg/kg in data set [3] (po, Table-5a); 655 mg/kg in data set [3] (po, Table-5b); 595 mg/kg in data set [3] (po, Table-5c). Moreover, the responders at 200 mg/kg is 0% in the data set with Male mice of ddY strain [4] (setting [12]), 0% in the data set with Male mice of ddY strain [4] (setting [13]) and 8.3% in the data set on Male mice of ddY strain [4] (setting [7]). The responders at 50 mg/kg with Male mice of ddY strain [5] (setting [14]), with Male mice of ddY strain [5] (setting [15]), with Male mice of ddY strain [5] (setting [8]), in the data set on Male mice of ddY strain [5] (setting [16]), in the data set with Male mice of ddY strain [5] (setting [17]) and in the data set on Male mice of ddY strain [5] (setting [9]) was 0% each time. In addition, the “Number of animals exhibiting no tremor” value turned out to be 0 in the data set on Male mice of ddY strain [5] (setting [18]); 0 in the data set with Male mice of ddY strain [5] (setting [19]); 0 in the data set with Male mice of ddY strain [5] (Table-3b, 50 mg/kg po, After 30 min., 10 animals used); 0 with Male mice of ddY strain [5] (Table-3b, 50 mg/kg po, After 60 min., 10 animals used); 0 in the data set with Male mice of ddY strain [5] (setting [10]); 0 in the data set with Male mice of ddY strain [5] (setting [11]).
Turning to `CCCC(CN1CCCCC1)C(=O)c1ccc2c(c1)OCO2` (centres unmarked) [Example 66, 1-(3,4-Methylenedioxyphenyl)-2-n-propyl-3-piperi-dino-1-propanone hydrochloride], the “rigidity of the forelimbs and hindlimbs” value in data set [2] (20 mg/kg intravenously) is “relaxed the rigidity similarly”. The compound further registered a 50% lethal dose (LD50) at 168 h in data set [3] (Table-5b, oral) of 625 mg/kg. Moreover, in the data set with Male mice of ddY strain [4] (Table-2b, 12 animals used), the responders at 200 mg/kg amounted to 58.3% and the “Number of surviving animals” value amounted to 7.
Consider `CC(CN1CCCC1)C(=O)c1ccc2c(c1)CCO2.Cl` (centres unmarked) [Example 92, 1-(2,3-Dihydro-5-benzofuranyl)-2-methyl-3-(1-pyrrolidinyl)-1-propanone hydrochloride], for which the “Number of animals exhibiting muscle relaxation” value in the data set on Male mice of ddY strain [1] (Table-4d, 75 mg/kg ip) stood at 6. The “rigidity of the forelimbs and hindlimbs” value in data set [2] (20 mg/kg intravenously) is on record as “relaxed the rigidity similarly”. The compound further displayed an LD50 at 168 h in data set [3] (Table-5c, oral) of 685 mg/kg. In addition, in the data set with Male mice of ddY strain [4] (Table-2c, 12 animals used), the responders at 200 mg/kg is 75%. Further, the “Number of surviving animals” value in the data set with Male mice of ddY strain [4] (Table-2c, 12 animals used) is 9. Further, the responders at 50 mg/kg with Male mice of ddY strain [5] (0.5 h) and with Male mice of ddY strain [5] (1 h) was 100% throughout. Further, the “Number of animals exhibiting no tremor” value in the data set on Male mice of ddY strain [5] (setting [10]) and in the data set on Male mice of ddY strain [5] (setting [11]) was 10 each time.
For the compound `CCc1ccc(C(=O)C(C)CN2CCCCC2)cc1` (centres unmarked) [Eperisone HCl, Eperisone, reference compound], the “Number of animals exhibiting muscle relaxation” value is on record as 2 with Male mice of ddY strain [1] (Table-4a, 50 mg/kg ip) and 2 in the data set on Male mice of ddY strain [1] (Table-4d, 75 mg/kg ip). Also, the LD50 at 168 h in data set [3] (po, Table-5a) is 595 mg/kg; in data set [3] (po, Table-5b), 475 mg/kg; in data set [3] (po, Table-5c), 565 mg/kg. Further, the responders at 200 mg/kg in the data set on Male mice of ddY strain [4] (setting [12]), in the data set with Male mice of ddY strain [4] (setting [13]) and with Male mice of ddY strain [4] (setting [7]) was 50% in each case. The responders at 50 mg/kg in the data set with Male mice of ddY strain [5] (setting [14]) came to 87.5%; in the data set on Male mice of ddY strain [5] (setting [15]), 80%; in the data set with Male mice of ddY strain [5] (setting [8]) it was 80%; in the data set on Male mice of ddY strain [5] (setting [16]) it was 0%; in the data set with Male mice of ddY strain [5] (setting [17]), 10%; with Male mice of ddY strain [5] (setting [9]) it was 20%.
For `CC(CN1CCCCCC1)C(=O)c1ccc2c(c1)CCO2.Cl` (centres unmarked) [Example 93, 1-(2,3-Dihydro-5-benzofuranyl)-2-methyl-3-(hexahydro-1H-azepin-1-yl)-1-propanone hydrochloride], the “Number of animals exhibiting muscle relaxation” value in the data set with Male mice of ddY strain [1] (Table-4d, 75 mg/kg ip) came out at 6. The “rigidity of the forelimbs and hindlimbs” value in data set [2] (20 mg/kg intravenously) is recorded as “relaxed the rigidity similarly”. In data set [3] (po, Table-5c), the LD50 at 168 h is 685 mg/kg. In addition, the responders at 200 mg/kg in the data set on Male mice of ddY strain [4] (setting [7]) was 58.3%. Further, the “Number of surviving animals” value in the data set on Male mice of ddY strain [4] (Table-2c, 12 animals used) is on record as 7. Moreover, the responders at 50 mg/kg with Male mice of ddY strain [5] (setting [8]) and in the data set on Male mice of ddY strain [5] (setting [9]) was 100% throughout. The “Number of animals exhibiting no tremor” value in the data set on Male mice of ddY strain [5] (setting [10]) and in the data set on Male mice of ddY strain [5] (setting [11]) was 10 each time.
Take “1-(4-Cyclopropylphenyl)-2-methyl-3-piperidino-1-propanone hydrochloride [Example 1]”: in the data set on Male mice of ddY strain [1] (Table-4a, 50 mg/kg ip), the “Muscle relaxation rate (%)” value was 60% and the “Number of animals exhibiting muscle relaxation” value worked out at 6. Besides, the “rigidity of the forelimbs and hindlimbs” value in data set [2] (10 mg/kg intravenously) was “relaxed the rigidity of the forelimbs and hindlimbs to a significant degree”. Moreover, the “Acute toxicity LD50 (mg/kg,po)” value with Male mice of ddY strain [6] was found to be 535 mg/kg. In the data set on Male mice of ddY strain [4] (Table-2a, 8 animals used), the “Inhibition of death (%)” value was 100.0% and the “Number of surviving animals” value is recorded as 8. Also, in the data set with Male mice of ddY strain [5] (setting [18]), the “Inhibition of tremor (%)” value worked out at 100% and the “Number of animals exhibiting no tremor” value worked out at 8. Moreover, in the data set with Male mice of ddY strain [5] (setting [19]), the “Inhibition of tremor (%)” value stood at 87.5% and the “Number of animals exhibiting no tremor” value was found to be 7.
For `CC(CN1CCCCC1)C(=O)c1ccc2c(c1)OCO2.Cl` (centres unmarked) [Example 57, 2-Methyl-1-(3,4-methylenedioxyphenyl)-3-piperidino-1-propanone hydrochloride], in data set [2] (20 mg/kg intravenously), the “rigidity of the forelimbs and hindlimbs” value is listed as “relaxed the rigidity similarly”. Moreover, the LD50 at 168 h in data set [3] (Table-5b, oral) was determined as 625 mg/kg. Further, in the data set with Male mice of ddY strain [4] (Table-2b, 12 animals used), the responders at 200 mg/kg came to 41.7% and the “Number of surviving animals” value was determined as 5.
For `CCC(CN1CCCCC1)C(=O)c1ccc2c(c1)OCO2.Cl` (centres unmarked) [Example 53, 2-Ethyl-1-(3,4-methylenedioxyphenyl)-3-piperidino-1-propanone hydrochloride], in data set [2] (20 mg/kg intravenously), the “rigidity of the forelimbs and hindlimbs” value was “relaxed the rigidity similarly”. This compound also gave an LD50 at 168 h in data set [3] (po, Table-5b) of 565 mg/kg. The compound also showed a responders at 200 mg/kg in the data set with Male mice of ddY strain [4] (setting [13]) of 83.3%. Besides, in the data set on Male mice of ddY strain [4] (Table-2b, 12 animals used), the “Number of surviving animals” value is recorded as 10.
